Data on ten compounds can be found in PubChem BioAssay (NCI).

Molecules are shown by their SMILES.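 Method: 48-hour compound exposure of cells in 96-well plates, five concentrations, linear interpolation of endpoints. Definition used: TGI = concentration required for complete inhibition of growth.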

Holding throughout (experiment): NCI-60 cell line screen, 48 h
Experiment [1] relates to SF-295 CNS.
Experiment [2] concerns TK-10 renal.
The test system of experiment [3] is BT-549 breast.
Experiment [4] deals with NCI-H460 lung.
Experiment [5] concerns HCT-116 colon.
In experiment [6] the test system is HCC-2998 colon.
The test system of experiment [7] is 786-0 renal.
Experiment [8] deals with CCRF-CEM leukemia.
Experiment [9] deals with OVCAR-3 ovarian.
Experiment [10] concerns A498 renal.

As for `C=C1OC(c2ccccc2NC)=NC12CCCCC2`, the TGI in [1], in experiment [2], in experiment [3], in experiment [4], in [5] and in [6] was above 100 µM in each case. Besides, the TGI in experiment [7], in experiment [8], in experiment [9] and in experiment [10] was above 100 µM in each case.

Take `O=C1NC2CCCCC2N=C1CC(=O)c1ccc(Br)cc1` (stereo not given): the TGI in experiment [1] was above 100 µM; in experiment [2] it was above 100 µM; in experiment [3] it was 94.2 µM; in experiment [4], above 100 µM; in experiment [5], above 100 µM; in experiment [6] it was above 100 µM. The TGI in experiment [7], in experiment [8], in [9] and in [10] was above 100 µM each time.

Turning to `CN(C)CCCNC(=O)c1cc(NC(=O)c2cc(NC(=O)CCCn3c4ccccc4c4ccccc43)cn2C)cn1C`, the TGI in experiment [1] is above 69.7 µM; in experiment [2], 39.3 µM; in [3], 46.7 µM; in [4], above 94 µM; in experiment [5] it was 13.8 µM; in experiment [6] it was 18.7 µM. Moreover, the TGI in experiment [7] is 28.7 µM; in [8], above 100 µM; in [9], above 72.5 µM; in experiment [10] it was 44.3 µM.

For `CC(C)c1cccc(C(C)C)c1NC(=O)/C(CC(=O)CC(c1ccccc1)c1c(O)c2ccccc2oc1=O)=N/O` (stereo not given), the TGI in experiment [1], in experiment [2], in [3], in experiment [4], in experiment [5] and in experiment [6] was above 100 µM each time. Moreover, the TGI in experiment [7], in experiment [8], in experiment [9] and in experiment [10] was above 100 µM each time.

`CC1CCC2(NC1)OC1CC3C4CC=C5CC(OC6OC(CO)C(OC7OC(C)C(O)C(O)C7O)C(O)C6OC6OC(C)C(O)C(O)C6O)CCC5(C)C4CCC3(C)C1C2C` (stereo not given): the TGI was 3.94 µM in [1]; 15.1 µM in [2]; 30.3 µM in experiment [3]; 9.16 µM in [4]; 4.91 µM in experiment [5]; 4.72 µM in [6]. The TGI in experiment [7] was 3.72 µM; in experiment [8], above 55.7 µM; in experiment [9] it was 4.09 µM; in experiment [10], 11.8 µM.

Consider `O=c1nc2c(c(-c3ccc(Br)cc3)[nH]1)COC/C2=C\c1ccc(Br)cc1`, for which the TGI in experiment [1], in [2], in experiment [3], in [4], in experiment [5] and in [6] was above 50 µM throughout. Besides, the TGI in experiment [7], in experiment [8], in experiment [9] and in experiment [10] was above 50 µM throughout.

In the case of `N#CC1(O)CCCCCCCCCCC1`, the TGI in experiment [1], in experiment [2], in experiment [3], in experiment [4], in experiment [5] and in experiment [6] was above 100 µM throughout. Moreover, the TGI in experiment [7], in [8], in [9] and in experiment [10] was above 100 µM throughout.

As to `C/C=C(/C)C(=O)OC1CC(C)[C@H]2CC(=O)C(C)=C2CC1C(C)(C)OC(C)=O` (stereo not given in full), the TGI in experiment [1] was above 100 µM; in [2], above 100 µM; in experiment [3], 85.4 µM; in experiment [4] it was 42.8 µM; in [5], 40.7 µM; in [6], 72.1 µM. Also, the TGI in [7] is above 100 µM; in experiment [8], 65.8 µM; in experiment [9], 45.4 µM; in experiment [10], 41.1 µM.

Consider `Cc1cc2c(O)c(c1)CN(CC(=O)O)Cc1cc(C)cc(c1O)CN(CC(=O)O)Cc1cc(C)cc(c1O)CN(CC(=O)O)C2`, for which the TGI in [1], in [2], in experiment [3], in [4], in experiment [5] and in experiment [6] was above 100 µM throughout. In addition, the TGI in experiment [7], in experiment [8], in experiment [9] and in experiment [10] was above 100 µM in each case.

For the compound `CCn1c2ccc(C(=O)CCCN3CCCCC3)cc2c2cc(C(=O)CCCN3CCCCC3)ccc21`, the TGI came out at 10.7 µM in experiment [1]; 15.9 µM in experiment [2]; 35 µM in experiment [3]; 3.12 µM in experiment [4]; 10.8 µM in experiment [5]; 23.8 µM in [6]. The TGI in experiment [7] turned out to be 2.78 µM; in experiment [8] it was 9.83 µM; in experiment [9], 5.3 µM; in [10], 10.3 µM.
